For this experiment, the target named is T1, P2X7 receptor (UniProt Q99572).
T1 sequence (Q99572 1-595): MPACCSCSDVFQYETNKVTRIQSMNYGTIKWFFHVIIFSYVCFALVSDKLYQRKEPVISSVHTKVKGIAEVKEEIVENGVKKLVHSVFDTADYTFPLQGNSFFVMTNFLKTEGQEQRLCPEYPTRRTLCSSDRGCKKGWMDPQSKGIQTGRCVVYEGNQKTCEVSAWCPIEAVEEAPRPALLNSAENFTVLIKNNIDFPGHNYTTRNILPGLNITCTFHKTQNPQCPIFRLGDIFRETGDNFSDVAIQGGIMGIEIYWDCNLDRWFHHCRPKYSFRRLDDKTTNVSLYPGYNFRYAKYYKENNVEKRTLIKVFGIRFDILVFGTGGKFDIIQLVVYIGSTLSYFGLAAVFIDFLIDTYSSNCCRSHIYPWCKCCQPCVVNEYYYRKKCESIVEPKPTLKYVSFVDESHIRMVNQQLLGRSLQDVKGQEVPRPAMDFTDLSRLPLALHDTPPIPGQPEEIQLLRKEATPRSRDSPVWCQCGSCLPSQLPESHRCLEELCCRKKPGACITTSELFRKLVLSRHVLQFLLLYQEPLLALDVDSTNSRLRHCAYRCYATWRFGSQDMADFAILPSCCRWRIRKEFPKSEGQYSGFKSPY
Nature of the experiment: pKi of Table 1 (assay not stated). The format is cell-based. The protocol: Intracellular Calcium Flux (FLIPR) Assay
Stock solutions of compounds were prepared from powders as a 10 mM DMSO stock solution. These solutions were stored at RT during the two week period of these experiments to prevent freeze-thaw of the DMSO stocks. The DMSO stocks were added to the appropriate assay buffer at a concentration of 10 μM, and then diluted serially to the final concentrations that were tested. […] The aqueous solutions of compounds as well as ATP (Sigma A7699) and BzATP (Sigma B6396) were prepared fresh for each day of experiment.
1321N1 cells stably expressing the full length human P2X7 gene (1321N1-hP2X7) and HEK293 cells stably expressing the full length rat P2X7 gene (HEK293-rP2X7) were obtained from the Roche Cell Culture Facility. 1321N1-hP2X7 cells were grown in Dulbecco's Modified Eagle's Medium (DMEM) high glucose supplemented with 10% FBS and 250 μg/mL G418. HEK293-rP2X7 cells were grown in DMEM/F-12 supplemented with 10% FBS, 1 mM CaCl2, 2 mM MgCl2, 2 mM L-Glutamine and 500 μg/ml G418. Cells were split such that they never became>70% confluent.
On the day prior to the experiment, 1321N1-hP2X7 or HEK293-rP2X7 cells were released into suspension with calcium-free PBS+Versene and washed by centrifugation with calcium-free PBS to remove the Versene. Cells were resuspended in growth medium at a density of 2.5×10^5 cells/mL and seeded into black walled, clear bottom 96 well plates (50,000 cells/well) approximately 18 hr prior to intracellular calcium flux experiments.
On the day of the experiment, plates were washed with FLIPR buffer (calcium- and magnesium-free Hank's Balanced Salt Solution (HBSS) supplemented with 10 mM Hepes, 2.5 mM probenecid and 2 mM calcium chloride) using a BIO-TEK 96 channel plate washer and incubated with […] fluo-3 dye at 37° C. for one hr. The dye was then removed by plate washing and the cells were allowed to equilibrate for 20 min at room temperature with antagonist or vehicle (FLIPR buffer). Agonist (100 μM BzATP final concentration for hP2X7; 5 μM BzATP final concentration or rP2X7) was added online with the FLIPR and fluorescence measurements made at 1 sec intervals for 60 sec followed by 3 sec intervals for a further 4 min (5 min total). A final addition of 5 μM ionomycin was made and the maximal BzATP-evoked fluorescence normalized to the maximal ionomycin-evoked fluorescence.

The term pKi denotes the Ki on a negative log10 scale, so that one unit is a factor of ten. A low value points to a high Ki. On to `O=C1C[C@@H](c2ccc(F)cc2)C(C(=O)Nc2cc3c(cc2Br)OCC(=O)N3CCO)=CN1` [Compound 38, (S)-4-(4-Fluoro-phenyl)-6-oxo-1,4,5,6-tetrahydro-pyridine-3-carboxylic acid [7-bromo-4-(2-hydroxy-ethyl)-3-oxo-3,4-dihydro-2H-benzo[1,4]oxazin-6-yl]-amide], for which the negative logarithm of the Ki (pKi) was determined as 5.25.
Regarding `Cc1cc2c(cc1NC(=O)C1=CNC(=O)C[C@H]1c1ccc(F)cc1)N(CCO)C(=O)CO2` [Compound 39, (S)-4-(4-Fluoro-phenyl)-6-oxo-1,4,5,6-tetrahydro-pyridine-3-carboxylic acid [4-(2-hydroxy-ethyl)-7-methyl-3-oxo-3,4-dihydro-2H-benzo[1,4]oxazin-6-yl]-amide], the negative-log Ki (pKi) stood at 5.48.
Under `CCc1cc2c(cc1NC(=O)C1=CNC(=O)C[C@H]1c1ccc(F)cc1)N(CCO)C(=O)CO2` [Compound 40, (S)-4-(4-Fluoro-phenyl)-6-oxo-1,4,5,6-tetrahydro-pyridine-3-carboxylic acid [7-ethyl-4-(2-hydroxy-ethyl)-3-oxo-3,4-dihydro-2H-benzo[1,4]oxazin-6-yl]-amide] stands 6.485; under `O=C1C[C@@H](c2ccc(F)cc2)C(C(=O)Nc2cc3c(cc2Br)CCC(=O)N3)=CN1` [Compound 41, (S)-4-(4-Fluoro-phenyl)-6-oxo-1,4,5,6-tetrahydro-pyridine-3-carboxylic acid (6-bromo-2-oxo-1,2,3,4-tetrahydro-quinolin-7-yl)-amide], 5.145; under `CCc1cc2cnn(C)c2cc1NC(=O)C1=CNC(=O)C[C@H]1c1ccc(F)cc1` [Compound 42, (S)-4-(4-Fluoro-phenyl)-6-oxo-1,4,5,6-tetrahydro-pyridine-3-carboxylic acid (5-ethyl-1-methyl-1H-indazol-6-yl)-amide], 7.74.
As for `Cc1cc2c(cc1NC(=O)C1=CNC(=O)C[C@H]1c1ccc(F)cc1)CCC(=O)N2C` [Compound 43, (S)-4-(4-Fluoro-phenyl)-6-oxo-1,4,5,6-tetrahydro-pyridine-3-carboxylic acid (1,7-dimethyl-2-oxo-1,2,3,4-tetrahydro-quinolin-6-yl)-amide], the pKi is 7.505.
With `CCc1cc2cnn(C)c2cc1NC(=O)C1=CNC(=O)C[C@H]1c1cccc(F)c1` [Compound 44, (S)-4-(3-Fluoro-phenyl)-6-oxo-1,4,5,6-tetrahydro-pyridine-3-carboxylic acid (5-ethyl-1-methyl-1H-indazol-6-yl)-amide], the pKi worked out at 7.825.
Compound `CCc1cc2cnn(CCO)c2cc1NC(=O)C1=CNC(=O)C[C@H]1c1cccc(F)c1` [Compound 45, (S)-4-(3-Fluoro-phenyl)-6-oxo-1,4,5,6-tetrahydro-pyridine-3-carboxylic acid [5-ethyl-1-(2-hydroxy-ethyl)-1H-indazol-6-yl]-amide] displayed a negative logarithm of the Ki (pKi) of 7.7.
Compound `CCc1c(NC(=O)C2=CNC(=O)C[C@H]2c2cccc(F)c2)ccc2nc(C)ccc12` [Compound 46, (S)-4-(3-Fluoro-phenyl)-6-oxo-1,4,5,6-tetrahydro-pyridine-3-carboxylic acid (5-ethyl-2-methyl-quinolin-6-yl)-amide] displayed a negative logarithm of the Ki (pKi) of 7.635.
As to `O=C1C[C@@H](c2ccc(F)cc2)C(C(=O)Nc2cccc3ccncc23)=CN1` [Compound 47, (S)-4-(4-Fluoro-phenyl)-6-oxo-1,4,5,6-tetrahydro-pyridine-3-carboxylic acid isoquinolin-8-ylamide], the pKi was determined as 5.29.
`Cc1cc2c(NC(=O)C3=CNC(=O)C[C@H]3c3ccc(F)cc3)cccc2nn1` [Compound 48, (S)-4-(4-Fluoro-phenyl)-6-oxo-1,4,5,6-tetrahydro-pyridine-3-carboxylic acid (3-methyl-cinnolin-5-yl)-amide]: the pKi is 5.425.
`Cc1ccc2c(NC(=O)C3=CNC(=O)C[C@H]3c3ccc(F)cc3)c(C)ccc2n1` [Compound 49, (S)-4-(4-Fluoro-phenyl)-6-oxo-1,4,5,6-tetrahydro-pyridine-3-carboxylic acid (2,6-dimethyl-quinolin-5-yl)-amide] gave a pKi of 7.8567.
`CN1C=C(C(=O)Nc2cccc3c(=O)n(CCO)ccc23)[C@H](c2ccc(F)cc2)CC1=O` [Compound 50, (S)-4-(4-Fluoro-phenyl)-1-methyl-6-oxo-1,4,5,6-tetrahydro-pyridine-3-carboxylic acid [2-(2-hydroxy-ethyl)-1-oxo-1,2-dihydro-isoquinolin-5-yl]-amide] returned a pKi of 7.04.
As to `Cc1ccc2c(=O)n(C)ccc2c1NC(=O)C1=CNC(=O)C[C@H]1c1ccc(F)cc1` [Compound 51, (S)-4-(4-Fluoro-phenyl)-6-oxo-1,4,5,6-tetrahydro-pyridine-3-carboxylic acid (2,6-dimethyl-1-oxo-1,2-dihydro-isoquinolin-5-yl)-amide], the pKi was determined as 7.4375.
Compound `Cc1ccc2c(=O)n(C)ccc2c1NC(=O)C1=CN(C)C(=O)C[C@H]1c1ccc(F)cc1` [Compound 52, (S)-4-(4-Fluoro-phenyl)-1-methyl-6-oxo-1,4,5,6-tetrahydro-pyridine-3-carboxylic acid (2,6-dimethyl-1-oxo-1,2-dihydro-isoquinolin-5-yl)-amide] yielded a negative-log Ki (pKi) of 7.45.
The same measure for `Cc1ccc2c(C)nccc2c1NC(=O)C1=CN(C)C(=O)C[C@H]1c1ccc(F)cc1` [Compound 53, (S)-4-(4-Fluoro-phenyl)-1-methyl-6-oxo-1,4,5,6-tetrahydro-pyridine-3-carboxylic acid (1,6-dimethyl-isoquinolin-5-yl)-amide]: 6.045; for `Cn1ccc2c(NC(=O)C3=CNC(=O)C[C@H]3c3ccc(F)cc3)cccc2c1=O` [Compound 58, (S)-4-(4-Fluoro-phenyl)-6-oxo-1,4,5,6-tetrahydro-pyridine-3-carboxylic acid (2-methyl-1-oxo-1,2-dihydro-isoquinolin-5-yl)-amide]: 7.56.

The values above are taken from US8372865B2, “Dihydropyridone amides as P2X7 modulators” (Roche Palo Alto LLC, priority 2008, dated 2013).
